Experimental data from patent US20170333391A1, “METHOD FOR DELAYING THE ONSET OF PULMONARY FIBROSIS OR TREATING PULMONARY FIBROSIS” (EVERFRONT BIOTECH INC., priority 2016, published 2017).

Tests used:
[1] = system: TGF-β protein; assay: TGF-β protein expression in TGF-β1-induced NHLF, western blotting (2-2); type: cell-based, human; conditions: TGF-β1-only control group = 1
Procedure: Normal Human lung fibroblasts (NHLF) were seeded into 6 cm culture dishes at a density of 2×10^5 cells/dish, comprising a control group and six experimental groups (7 dishes in total). The cells were cultured until the next day, and then the mediums were removed. Each group was respectively treated under the following conditions to conduct follow-up experiments: • (1) Positive control group: cells were cultured in a FGM-2 medium containing 1% serum and TGF-β1 (5 ng/ml) for 36 hours; • (2) Group I: cells were firstly cultured in a FGM-2 medium containing 1% serum and TGF-β1 (5 ng/ml) for 12 hours, and then compound (1) was added into the medium to provide a final concentration of 15 μg/ml; thereafter, the cells were cultured for another 24 hours; • (3) Group II: cells were firstly cultured in a FGM-2 medium containing 1% serum and TGF-β1 (5 ng/ml) for 12 hours, and then compound (1) was added into the medium to provide a final concentration of 25 μg/ml; thereafter, the cells were cultured for another 24 hours; • (4) Group III: cells were firstly cultured in a FGM-2 medium containing 1% serum and TGF-β1 (5 ng/ml) for 12 hours, and then compound (1) was added into the medium to provide a final concentration of 35 μg/ml; thereafter, the cells were cultured for another 24 hours; • (5) Group IV: cells were firstly cultured in a FGM-2 medium containing 1% serum and TGF-β1 (5 ng/ml) for 12 hours, and then the Pirfenidone was added into the medium to provide a final concentration of 100 μg/ml; thereafter, the cells were cultured for another 24 hours; • (6) Group V: cells were firstly cultured in a FGM-2 medium containing 1% serum and TGF-β1 (5 ng/ml) for 12 hours, and then the Pirfenidone was added into the medium to provide a final concentration of 250 μg/ml; thereafter, the cells were cultured for another 24 hours; and • (7) Group VI: cells were firstly cultured in a FGM-2 medium containing 1% serum and TGF-β1 (5 ng/ml) for 12 hours, and then the Pirfenidone was added into the medium to provide a final concentration of 500 μg/ml; thereafter, the cells were cultured for another 24 hours.
(§1) Thereafter, the proteins in the cells of each group were extracted, and the expressions of type I collagen, BMP-7 protein and TGF-β protein in the NHLF cells of each group were measured with western blotting. The results of the control group served as the basis for calculating the relative expression levels of the other groups.

[2] = system: α-SMA protein; assay: α-SMA protein expression in NHLF, western blotting (3-1); type: cell-based, human
Procedure: Normal Human lung fibroblasts (NHLF) were seeded into 6 cm culture dishes at a density of 2×10^5 cells/dish, comprising a control group and six experimental groups (7 dishes in total). The cells were cultured until the next day, and then the mediums were removed. Each group was respectively treated under the following conditions to conduct follow-up experiments: • (1) Control group: cells were cultured in a FGM-2 medium containing 10% serum for 36 hours; • (2) Group i: cells were cultured in a FGM-2 medium containing 1% serum for 36 hours; • (3) Group ii: cells were firstly cultured in a FGM-2 medium containing 1% serum for 12 hours, and then compound (1) was added into the medium to provide a final concentration of 15 μg/ml; thereafter, the cells were cultured for another 24 hours; • (4) Group iii: cells were firstly cultured in a FGM-2 medium containing 1% serum for 12 hours, and then compound (1) was added into the medium to provide a final concentration of 25 μg/ml; thereafter, the cells were cultured for another 24 hours; • (5) Group iv: cells were cultured in a FGM-2 medium containing 1% serum and TGF-β1 (5 ng/ml) for 36 hours; • (6) Group v: cells were firstly cultured in a FGM-2 medium containing 1% serum and TGF-β1 (5 ng/ml) for 12 hours, and then compound (1) was added into the medium to provide a final concentration of 15 μg/ml; thereafter, the cells were cultured for another 24 hours; and • (7) Group vi: cells were firstly cultured in a FGM-2 medium containing 1% serum and TGF-β1 (5 ng/ml) for 12 hours, and then compound (1) was added into the medium to provide a final concentration of 25 μg/ml; thereafter, the cells were cultured for another 24 hours.
as §1, with “of” for “of type I collagen,”, “BMP-7 protein, TGF-β” for “BMP-7”, “α-SMA” for “TGF-β”, “blotting, wherein the β-actin served as the internal control.” for “blotting.”

[3] = system: surfactant C; assay: surfactant C in mouse pulmonary tissue, western blotting; type: in vivo, mice; conditions: compared to oil group
Procedure: 24 C57B/L6 mice (age: four weeks) were separated into four groups (6 mice in each group). […]
The samples of mice pulmonary tissue provided by Example 7 and preserved at −20° C. were removed from storage, and then ground in liquid nitrogen. […] The expressions of TGF-β protein, smad3 protein and surfactant C in the samples of each group were measured with western blotting, wherein the actin served as an internal control.

CCCC=C1OC(=O)c2ccccc21 [compound (1)]
Relative expression level (fold) TGF-β protein ([1]; Group I: TGF-β1 5 ng/ml 12 h, then compound (1) 15 μg/ml 24 h): 0.81 fold
Relative expression level (fold) TGF-β protein ([1]; Group II: TGF-β1 5 ng/ml 12 h, then compound (1) 25 μg/ml 24 h): 0.77 fold
Relative expression level (fold) TGF-β protein ([1]; Group III: TGF-β1 5 ng/ml 12 h, then compound (1) 35 μg/ml 24 h): 0.58 fold
Relative expression level (fold) α-SMA protein ([2]; Group ii: 1% serum 12 h, then compound (1) 15 μg/ml 24 h, no TGF-β1, 10% serum control = 1, 1% serum group i = 0.94): 0.95 fold
Relative expression level (fold) α-SMA protein ([2]; Group iii: 1% serum 12 h, then compound (1) 25 μg/ml 24 h, no TGF-β1, 10% serum control = 1, 1% serum group i = 0.94): 0.89 fold
Relative expression level (fold) α-SMA protein ([2]; Group v: 1% serum + TGF-β1 5 ng/ml 12 h, then compound (1) 15 μg/ml 24 h, 10% serum control = 1, TGF-β1-only group iv = 0.89): 0.72 fold
Relative expression level (fold) α-SMA protein ([2]; Group vi: 1% serum + TGF-β1 5 ng/ml 12 h, then compound (1) 25 μg/ml 24 h, 10% serum control = 1, TGF-β1-only group iv = 0.89): 0.77 fold
expression level of surfactant C in pulmonary tissue ([3]; High-dose group, compound (1) 50 mg/kg orally daily 30 days): significantly higher
expression level of surfactant C in pulmonary tissue ([3]; Low-dose group, compound (1) 10 mg/kg orally daily 30 days): significantly higher
